# Results taken from patent US20240108585A1, “COMPOSITIONS COMPRISING LIPID-BASED NANOPARTICLES FOR TREATING DIABETES MELLITUS” (SDG, Inc., priority 2018, published 2024).
# What was measured:
# [1] = test system: type 1 diabetes mellitus (T1DM); test: ISLE-1: 26-week Phase 2b multicenter randomized double-blind non-inferiority trial, HDV-L vs LIS, multiple daily injections
# Text: ISLE-1 was a 26-week, Phase 2b, multicenter, randomized, double-blind, non-inferiority trial.
# ISLE-1 was a 26-week, Phase 2b, multicenter, randomized, double-blind, trial in T1DM treated with multiple daily injections (MDI) of insulin.
# Main inclusion criteria were: age ≥18 years; T1D for ≥12 months; A1c ≥7.0 ([…]) to ≤10.5% (≤91 mmol/mol); treated with insulins glargine or detemir for basal coverage. Main exclusion criteria were total insulin dose ≥1.5 IU/kg/day or NPH insulin as basal.
# Prandial dosing of HDV-lispro or control lispro was 15 minutes prior to the meal, and basal insulins were administered either as a single daily dose or a divided twice per day dosing, every 12 hours.
# Informed of −10% dilution, participants continued their current insulin parameters. Hypoglycemia was recorded on Case Report Forms (CRFs) based on subject diaries and SMBG records, subjectively investigator-judged as “mild,” “moderate,” “severe,” or “life threatening.” Blinded continuous glucose monitoring (CGM) (Dexcom G4) was used for 5-7 days to assess glucose at baseline, weeks 13 and 26. A1c, lipids, and liver enzymes were measured approximately monthly. Liver fat content MRIs were performed in a subset.
# The intent to treat (ITT) population included all randomized subjects receiving at least one dose of study treatment. Safety analyses included all randomized subjects. […] Mean A1c change was analyzed using ANCOVA within intent-to-treat (ITT) cohort at each visit. Post hoc subgroup analyses (baseline A1c <8.5% vs ≥8.5%) were performed, this cut point corresponding to pre-specified randomization strata. Direct likelihood models were used for treatment arm A1c comparisons, % time <54 mg/dL, bolus insulin, and basal insulin within the two A1c subgroups. Poisson regression models adjusting for site as random effect compared “severe” hypoglycemia incidence rates within A1c groups, testing for baseline A1c by treatment group interaction. Event number/subject was truncated at 15, accounting for extreme outliers.
# [2] = test system: adult Type 1 diabetes mellitus; test: Example 2 pump study: randomized double-blinded two-way crossover, HDV lispro vs lispro by insulin pump, CGM and mixed meal test; type: in vivo, human; settings: baseline HbA1c 7.19; 3-week pump period; 7 subjects
# Text: A study was run comparing the efficacy of HDV lispro vs. lispro to treat adult Type 1 diabetes mellitus when administered by pump. The study involved 7 subjects and was a randomized, double-blinded two-way crossover study. The dosing duration was 3-week on standard insulin x 3-week on HDV-insulin with infusion via standard commercial insulin pumps, and a mixed meal test was employed; continuous glucose monitoring was achieved via blinded Dexcom G4 Platinum Continuous Glucose Monitor. The baseline HbA1c was 7.19, and the ending HbA1c was 7.21 (for the HDV group) and 7.08 (for the lispro group).
# [3] = test system: adult Type 1 diabetes mellitus; test: Example 3: double-blinded randomized six-week parallel study, HDV lispro vs lispro, multiple daily injections, CGM; type: in vivo, human
# Text: A double-blinded, randomized study was run comparing the efficacy of HDV lispro vs. lispro to treat adult Type 1 diabetes mellitus. The study involved 43 (1:1) subjects (who were considered to be in good control, with HbA1c levels between 7-8%) and was a six-week parallel design study, with multiple daily injections. The baseline HbA1c was 7.35 (HDV group) and 7.39 (lispro group). The primary endpoint was a two-hour reduction in glucose time out of range.
substance,measurement,setting,value
insulin lispro,treatment-related serious adverse events,[1]; 26 weeks,No treatment-related serious adverse events were reported
same,Mean change in A1c baseline to Week 26,"[1]; all subjects, HDV-L n=118, LIS n=58",−0.16%
same,change in A1c over time,[1]; baseline A1c <8.5%,little change
same,time <54 mg/dL during Week 26 (median),"[1]; baseline A1c <8.5%, CGM, p=0.16",0.6%
same,"CRF-reported incidence of ""severe"" hypoglycemia","[1]; baseline A1c <8.5%, p=0.001, unit not given",21
same,percentage time <54 mg/dL during Week 26 (median),"[1]; baseline A1c >8.5%, CGM, p=0.09",2.6%
same,change in total cholesterol,[1]; over the study,7.3 mg/dL
same,"""life threatening"" hypoglycemia events",[1]; whole study,No “life threatening” events were recorded
same,ending HbA1c,[2],7.08
same,"Time in Range (70-180 mg/dL), increase",[3],*No Change in Lispro Group
same,"Time in Target (70-140 mg/dL), increase",[3],*No Change in Lispro Group
